Reference: article PMC12643354, “From Oxygen to Tellurium: The Impact of the Chalcogen on Nucleophilicities and Basicities of Isochalcogenourea Catalysts” (Angewandte Chemie (International Ed. in English), 2025)
“And” between values parts separate entries of the source, which are not always exact repeats. Equal values may be shown once. Read-outs that look alike come from different tables or passages of the source.

Experiments:
[1] = cited from earlier work
[2] = Mayr nucleophilicity parameters N and sN (benzhydrylium methodology, Mayr-Patz equation); assay type: physicochemical; settings: dichloromethane, 20 °C
Description: (1) Mayr-Patz Equation: lgk20^∘C=sN(N+E)
The MPE is a linear‐free‐energy relationship that characterizes electrophiles by the electrophilicity parameter E and nucleophiles by the solvent‐dependent parameters N (nucleophilicity) and s N (sensitivity toward changes in the electrophile reactivity). By using the MPE (Equation (1)), the construction of comprehensive nucleophilicity and electrophilicity scales becomes possible, which facilitate the comparison of various classes of Lewis base organocatalysts.^[ [110], [111], [112], [113], [114], [115], [116], [117], [118], [119], [120] ^]
(§1) In order to systematically investigate the influence of the chalcogen atom on the nucleophilicity of DHPB‐derived IChUs (Ch = O, S, Se, and Te), we utilized Mayr's benzhydrylium methodology.^[ [107] ^]
Figure 4 illustrates the linear correlations of the second‐order rate constants (lg k 2) with the electrophilicities E of Ar2CH^+ (18), which makes it possible to determine the Mayr nucleophilicity parameters N (and s N) for the DHPB‐derived IChUs IU3, ITU3, ISeU3, and ITeU3. […]
Figure 4 Linear correlations of second‐order rate constants (lg k 2) for the reactions of IU3, ITU3, ISeU3, and ITeU3 with Ar2CH^+ 18 (in dichloromethane at 20 °C) with the electrophilicities E of 18. The slopes of the linear correlations equal the nucleophile‐dependent sensitivity parameter s N. Intercepts on the abscissa reflect the nucleophilicity parameter N (N = –E at lg k 2 = 0).

[3] = Lewis basicity LB from equilibrium constants (photometric titrations) with benzhydrylium ions as reference Lewis acids; assay type: physicochemical; set-up: key: Mayr Lewis basicity scale; LB from K and reference LA via Eq. (3); settings: in dichloromethane, 20 °C
Method: (a) Lewis basicity. Previously, the Mayr group established a series of benzhydrylium ions as C‐centered Lewis acid references to construct a Lewis basicity scale in dichloromethane. Substituting experimentally determined equilibrium constants K (at 20 °C) and reported Lewis acidities LA for the benzhydrylium ions (Figure 7) in Equation (3) enables one to calculate the Lewis basicity (LB) of a Lewis base.^[ [121], [127] ^] (3) lgK(20^∘C)=LA+LB
The reversibility of the formation of adducts 19 (Equation (4)), which was also apparent in the kinetics by significant positive intercepts in several of the k obs versus [IChU] plots (Supporting Information), provided the opportunity to probe the thermodynamics of the C‐N bond‐forming reactions of IChUs with benzhydrylium ions as the reference Lewis acids in more detail.^[ [95] ^] (4) IChU+Ar2CH^+(18)⇌Ar2CH-IChU^+(19)
By assuming the validity of the Beer–Lambert law for dilute solutions, equilibrium constants K (L mol^−1) were determined in photometric titrations according to Equation (5) from the initial absorbance (A 0) of the benzhydrylium ions 18 and the absorbance at equilibrium (A, Equation 5), that is, after addition of a certain amount of an IChU.^[ [109], [110], [111], [112], [113], [114], [115], [119] ^] (5) K=[19]/[18]IChU=A0−A/AIChU

[4] = Mayr nucleophilicity parameters N and sN (benzhydrylium methodology, Mayr-Patz equation); assay type: physicochemical; settings: 20 °C
[5] = dichloromethane, 20 °C; cited from earlier work
[6] = Brønsted basicity pKaH by chemical shift imaging NMR method in DMSO and MeCN
Method: Recently, Wiskur's group reported potentiometrically determined pK aH values (that is, the pK a of the conjugate acids) of achiral ITUs based on the BTM and DHPB scaffolds in aqueous media.^[ [89], [128] ^] […] In this work, we applied this NMR spectroscopic method to determine the pK aH values of further IChUs in DMSO and MeCN (Supporting Information).
First, a stock solution containing the analyte, two basic indicators and tetramethyl silane was prepared with the respective solvent (DMSO or acetonitrile).
Then 5-10 mg of acid were weighed into a NMR tube and subsequently covered with glass beads.
Figure S50: 5-10 mg of acid in Figure S51: Cover with 1 mm
Afterwards, 550 μL of the stock solution was layered carefully over the glass beads and the acid. The sample is then put in a 28 °C water bath (for DMSO) for 20 - 24h or left on the bench at 22 °C (for acetonitrile) for 1.5 - 2 h and then the NMR measurement was carried out at 20 °C.
Figure S52: Overlay the acid with the Figure S54: Visualized gradient after stock solution of two indicators and the 18h in DMSO (with Bromthymolblue) […]
Figure S53: Development of gradients in temperated water S145 […]
13.4 Indicator and Acid Data
Table S67: Limiting shifts (δH for the fully protonated and δL for the free base), pKas and abbreviations of indicators and acids in acetonitrile.
Table S68: Limiting shifts (δH for the fully protonated and δL for the free base), pKas and abbreviations of indicators

[7] = Kinetics of IChU reactions with reference electrophile (lil)2CH+ (stopped-flow photometry); assay type: physicochemical; settings: E = −10.04, dichloromethane, 20 °C
Description: as §1
In accordance with observations in previous studies on ITU reactivity,^[ [119] ^] mixing the strongly colored benzhydrylium tetrafluoroborates 18 with excess IChUs in dichloromethane gave rise to decolorization of the solutions due to the formation of isochalcogenouronium tetrafluoroborates 19, which are colourless (Figure 3a). […] To establish pseudo first‐order conditions and to secure a sufficient decay of the benzhydrylium's absorbance during the course of the reactions, the IChUs were employed at higher concentrations than the benzhydrylium ions. First‐order rate constants k obs (s^−1) were determined by fitting the mono‐exponential decay function in Equation (2) to the decreasing absorbance (A) of 18 during their reaction with the IChUs as exemplified for the reaction of ITeU3 with (ind)2CH^+ in Figure 3b. […]
First‐order rate constants k obs correlated linearly with the IChU concentration. Therefore, second‐order rate constants k 2 (L mol^−1 s^−1) were determined from the slope of the linear regression curves (Figure 3c ^[ [95] ^]). […]

[8] = Kinetics of IChU reactions with reference electrophile (ind)2CH+ (stopped-flow photometry); assay type: physicochemical; settings: E = −8.76, dichloromethane, 20 °C
Description: as §1
(§2) In accordance with observations in previous studies on ITU reactivity,^[ [119] ^] mixing the strongly colored benzhydrylium tetrafluoroborates 18 with excess IChUs in dichloromethane gave rise to decolorization of the solutions due to the formation of isochalcogenouronium tetrafluoroborates 19, which are colourless (Figure 3a). Owing to reversibility of the C─N bond formation, generated adducts 19 from the IChU/benzhydrylium reactions were not isolated but characterized by ^1H, ^13C, and ^77Se NMR spectroscopy (the ^77Se nucleus is remarkably sensitive with observed changes of around 100 ppm when comparing the ^77Se resonances of free ISeUs with those of the corresponding selenouronium tetrafluoroborates^[ [95] ^]). The kinetics of the IChU reactions with the reference electrophiles 18 were traced by photometric methods using standard stopped‐flow techniques. To establish pseudo first‐order conditions and to secure a sufficient decay of the benzhydrylium's absorbance during the course of the reactions, the IChUs were employed at higher concentrations than the benzhydrylium ions. First‐order rate constants k obs (s^−1) were determined by fitting the mono‐exponential decay function in Equation (2) to the decreasing absorbance (A) of 18 during their reaction with the IChUs as exemplified for the reaction of ITeU3 with (ind)2CH^+ in Figure 3b. (2) A=A0e^−kobst+C […]
(§3) First‐order rate constants k obs correlated linearly with the IChU concentration. Therefore, second‐order rate constants k 2 (L mol^−1 s^−1) were determined from the slope of the linear regression curves (Figure 3c ^[ [95] ^]). Second‐order rate constants k 2 for all kinetically investigated reactions of DHPB‐derived IChUs (Ch = O, S, Se, and Te) with benzhydrylium ions 18 are gathered in Table 1.
(§4) Apart from CH2Cl2 also MeCN and THF are solvents that are commonly employed in reactions involving isochalcogenoureas. […]

[9] = Kinetics of IChU reactions with reference electrophile (pyr)2CH+ (stopped-flow photometry); assay type: physicochemical; settings: E = −7.69, dichloromethane, 20 °C
Description: as §1, §2, §3, §4

[10] = Kinetics of IChU reactions with reference electrophile (dma)2CH+ (stopped-flow photometry); assay type: physicochemical; settings: E = −7.02, dichloromethane, 20 °C
Description: as §1, §2, §3, §4

[11] = in acetonitrile, ref SI [25]-[30]

Row | Lewis basicity LB [3] | Structure (SMILES) | Nucleophile-specific sensitivity parameter sN [2] | Nucleophilicity parameter N [2] | further results
1 | – | O=C(O)c1ccc([N+](=O)[O-])cc1[N+](=O)[O-] [2,4-Dinitrobenzoic acid] | – | – | Literature pKa of indicators and acids ([1]; in DMSO, ref SI [31]-[36]): 6.5
2 | – | CN(C)c1ccncc1 [4-(dimethylamino)pyridine] | – | – | Literature pKa of indicators and acids ([1]; in DMSO, ref SI [31]-[36]): 7.91; Literature pKa of indicators and acids [1, 11]: 17.95
3 | 14.18 | Fc1ccc2c(c1)SC1=N[C@H](c3ccccc3)CN12 [F-ITU2, 7-F-BTM] | 0.66 | 13.45 and 13.46 | –
4 | – | c1ccc(C2CN3CC[Se]C3=N2)cc1 (centres unmarked) [ISeU1, SeTM] | 0.60 | 15.26 | –
5 | 15.50 | c1ccc(C2CN3CCSC3=N2)cc1 (centres unmarked) [ITU1, tetramisole, reference compound] | 0.68 | 13.86 | –
6 | 14.88 | c1ccc([C@@H]2CN3C(=N2)Sc2ccccc23)cc1 [ITU2, benzotetramisole] | 0.73 | 13.06 | –
7 | 13.43 | c1ccc([C@@H]2CCN3C(=N2)Sc2ccccc23)cc1 [ITU4, HBTM] | – | – | Nucleophilicity parameter N [5]: 13.45
8 | 14.12 | CC(C)[C@@H]1CN2C(=N[C@@H]1c1ccccc1)Sc1ccccc12 [ITU5, HyperBTM] | – | – | Nucleophilicity parameter N [5]: 14.96
9 | 12.42 | CC(C)[C@@H]1CN2C(=N[C@@H]1c1ccccc1)Oc1ccccc12 [IU5, OHyperBTM] | 0.73 | 13.01 | –
10 | 15.22 | COc1ccc2c(c1)SC1=N[C@H](c3ccccc3)CN12 [MeO-ITU2, 7-MeO-BTM] | 0.75 | 13.15 | –
11 | – | CC1(C)OC(=O)CC(=O)O1 [Meldrum’s acid] | – | – | Literature pKa of indicators and acids ([1]; in DMSO, ref SI [31]-[36]): 7.3
12 | – | CN(C)c1cccc2cccc(N(C)C)c12 [Proton Sponge] | – | – | Literature pKa of indicators and acids ([1]; in DMSO, ref SI [31]-[36]): 7.47
13 | – | C1CCNC1 [Pyrrolidine] | – | – | Literature pKa of indicators and acids ([1]; in DMSO, ref SI [31]-[36]): 11.06; Literature pKa of indicators and acids [1, 11]: 19.56

Row | Structure (SMILES) | Lewis basicity LB [3] | Nucleophile-specific sensitivity parameter sN [2] | Nucleophilicity parameter N [2] | further results
14 | c1ccc([C@@H]2CN3C(=N2)[Se]c2ccccc23)cc1 [ISeU2, SeBTM] | 15.23 | 0.63 | 14.27 | –
15 | c1ccc([C@@H]2CCN3C(=N2)[Se]c2ccccc23)cc1 [ISeU4, SeHBTM] | 14.03 | 0.67 | 14.42 | –
16 | CC(C)[C@@H]1CN2C(=N[C@@H]1c1ccccc1)[Se]c1ccccc12 [ISeU5, SeHyperBTM] | 14.75 | 0.58 | 16.11 | Nucleophile-specific sensitivity parameter sN ([4]; THF): 0.77; Nucleophilicity parameter N ([4]; THF): 14.19; Nucleophile-specific sensitivity parameter sN ([4]; acetonitrile): 0.57; Nucleophilicity parameter N ([4]; acetonitrile): 15.84
17 | c1ccc([C@@H]2CN3C(=N2)[Te]c2ccccc23)cc1 [ITeU2, TeBTM] | 17.09 | 0.66 | 14.62 | –
18 | c1ccc2c(c1)[Te]C1=NCCCN12 [ITeU3, TeDHPB] | 17.13 | 0.65 | 16.63 | Brønsted basicity pKaH(DMSO) ([6]; in DMSO): 11.0; Brønsted basicity pKaH(MeCN) ([6]; in MeCN): 19.7; Second-order rate constant k2 exptl [7]: 19400 M⁻¹ s⁻¹; Second-order rate constant k2 exptl [8]: 127000 M⁻¹ s⁻¹; Second-order rate constant k2 exptl [9]: 731000 M⁻¹ s⁻¹; Second-order rate constant k2 exptl [10]: 1.67e+06 M⁻¹ s⁻¹
